{"source": "patent US20210403485A1", "about": "“PYRAZOLOPYRIMIDINE DERIVATIVE AS SELECTIVE TRK INHIBITOR” (SHANDONG LUYE PHARMACEUTICAL CO., LTD., priority 2018, published 2021)", "key": {"[1]": {"target": "T1, BaF3 ETV6-NTRK3-G623R (Homo sapiens, UniProt Q16288, G623R, cells depend on it)", "T1 construct": "fused on or other part: N-terminal part of ETV6 (TEL) as fusion partner (part of the key); P41212 (Transcription factor ETV6)", "T1 sequence (Q16288 whole entry G623R, the tested form may be a part)": "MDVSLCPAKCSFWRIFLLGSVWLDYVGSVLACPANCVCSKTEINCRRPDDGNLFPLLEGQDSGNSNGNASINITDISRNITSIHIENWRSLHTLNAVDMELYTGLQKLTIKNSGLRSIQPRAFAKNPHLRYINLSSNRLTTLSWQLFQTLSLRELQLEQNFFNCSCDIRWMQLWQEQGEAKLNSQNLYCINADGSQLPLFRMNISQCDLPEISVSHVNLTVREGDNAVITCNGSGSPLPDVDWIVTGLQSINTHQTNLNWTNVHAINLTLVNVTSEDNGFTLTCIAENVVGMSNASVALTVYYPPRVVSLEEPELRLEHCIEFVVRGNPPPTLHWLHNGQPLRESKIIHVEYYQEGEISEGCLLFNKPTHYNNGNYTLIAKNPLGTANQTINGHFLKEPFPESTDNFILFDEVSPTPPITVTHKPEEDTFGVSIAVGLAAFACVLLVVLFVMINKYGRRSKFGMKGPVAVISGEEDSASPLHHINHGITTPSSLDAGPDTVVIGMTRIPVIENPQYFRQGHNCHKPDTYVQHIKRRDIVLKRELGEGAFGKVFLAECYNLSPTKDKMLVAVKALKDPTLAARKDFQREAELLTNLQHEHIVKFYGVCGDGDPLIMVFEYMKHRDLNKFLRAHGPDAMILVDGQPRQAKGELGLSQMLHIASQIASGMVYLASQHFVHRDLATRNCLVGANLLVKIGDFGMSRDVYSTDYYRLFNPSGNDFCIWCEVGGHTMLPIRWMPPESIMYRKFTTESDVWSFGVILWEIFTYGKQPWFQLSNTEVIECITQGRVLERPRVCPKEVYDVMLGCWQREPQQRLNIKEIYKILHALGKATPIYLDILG", "test": "Inhibitory activity against cell proliferation (CellTiter-Glo, 72 hours)", "assay_type": "cell-based", "conditions": "read-out: Half maximal inhibitory concentration IC50 of cells, BaF3 ETV6-NTRK3-G623R", "procedure": "Adenosine Triphosphate (ATP) is an energy carrier commonly used in various life activities in nature, and is the minimum unit for energy storage and transfer. The CellTiter-Glo™ cell viability assay kit uses luciferase as an assay agent, which requires the involvement of ATP in luminescence. The CellTiter-Glo™ reagent is added into cell culture medium to measure the luminescence value. The luminescence signal is directly proportional to the amount of ATP in the system, and the ATP is positively correlated with the number of viable cells. Therefore, the proliferation of cells can be detected by detecting the ATP content using the CellTiter-Glo kit. In this test, the cell lines used are Ba/F3 LMNA-NTRK1-WT, Ba/F3 LMNA-NTRK1-F589L, BaF3 LMNA-NTRK1-G595R, BaF3 LMNA-NTRK1-G667A, BaF3 ETV6-NTRK3-WT, BaF3 ETV6-NTRK3-G623R, and Ba/F3 SLC34A2-ROS1-WT stable cell strains, 5000 cells/well.\na) Cells in the logarithmic growth phase were collected and counted using a […]. The cell viability was detected by the trypan blue exclusion method, and the cell viability was kept over 90%.\nb) The cell concentration was adjusted; 90 μL of the cell suspension was added to a 96-well plate.\nc) Cells in the 96-well plate were incubated overnight at 37° C. with 5% CO2 and 95% humidity.\na) A 10-fold compound solution was prepared, with the highest concentration being 10 μM (a total of 9 concentrations, 3-fold dilution). 10 μL of compound solution was added to each well of a 96-well plate inoculated with cells, and three duplicate wells were set for each compound concentration.\nb) The cells in the 96-well plate added with compound were incubated for 72 hours at 37° C. with 5% CO2 and 95% humidity, followed by the CTG (CellTiter-Glo) analysis.\na) The CTG reagent was thawed and the cell plate was equilibrated to room temperature for 30 minutes.\nb) An equal volume of CTG solution was added to each well.\nc) The plate was shaken on an orbital shaker for 5 minutes to lyse the cells.\nd) The cell plate was placed at room temperature for 20 minutes to stabilize the luminescence signal.\ne) The luminescence value was read.\nThe data were analyzed using GraphPad Prism 5.0 software, fitted with nonlinear S-curve regression to give dose-response curves, and IC50 values were calculated therefrom."}, "[2]": {"tested_on": "Ba/F3 ETV6-NTRK3-G623R cells", "test": "Efficacy test in animals: subcutaneous xenograft, intragastric administration", "assay_type": "in vivo, nude mice", "conditions": "for TGI (tumor growth inhibition rate): day of dissection; for Tumor inhibition rate (by tumor weight) / Tumor weight: end of the test", "procedure": "Cells in the logarithmic growth phase were collected and resuspended in serum-free medium to a cell concentration of 2-4×10^7 cells/mL. An equal volume of matrigel was added to the cell suspension to achieve a final cell concentration of 1-2×10^7 cells/mL. 0.2 mL of tumor cell suspension was subcutaneously inoculated at the scapula of each nude mouse with the inoculation amount of 2-4×10^6 cells/mouse to prepare the animal models."}}, "data": [{"smiles": "O=C1NC2(CC2)COc2ncc(F)cc2C2COCCN2c2ccn3ncc1c3n2", "note": "(single isomer, unassigned) [WX001B]", "values": [{"measurement": "GI50", "setting": "[1]", "result": 2.3, "unit": "nM"}, {"measurement": "Inhibition of growth of subcutaneous xenografts", "setting": "[2]; 2.5-20 mg/kg", "result": "in a dose-dependent manner"}, {"measurement": "Relative tumor proliferation rate T/C", "setting": "[2]; Day 0, 2.5 mg/kg bid", "result": 100.00, "unit": "%"}, {"measurement": "Tumor volume", "setting": "[2]; Day 0, 2.5 mg/kg bid", "result": "200.40 ± 33.16", "unit": "mm^3"}, {"measurement": "Relative tumor proliferation rate T/C", "setting": "[2]; Day 0, 5 mg/kg bid", "result": 100.00, "unit": "%"}, {"measurement": "Tumor volume", "setting": "[2]; Day 0, 5 mg/kg bid", "result": "200.35 ± 32.62", "unit": "mm^3"}, {"measurement": "Relative tumor proliferation rate T/C", "setting": "[2]; Day 0, 10 mg/kg bid", "result": 100.00, "unit": "%"}, {"measurement": "Tumor volume", "setting": "[2]; Day 0, 10 mg/kg bid", "result": "199.55 ± 34.92", "unit": "mm^3"}, {"measurement": "Relative tumor proliferation rate T/C", "setting": "[2]; Day 0, 20 mg/kg bid", "result": 100.00, "unit": "%"}, {"measurement": "Tumor volume", "setting": "[2]; Day 0, 20 mg/kg bid", "result": "199.51 ± 34.71", "unit": "mm^3"}, {"measurement": "Relative tumor proliferation rate T/C", "setting": "[2]; Day 3, 2.5 mg/kg bid", "result": 64.91, "unit": "%"}, {"measurement": "Tumor volume", "setting": "[2]; Day 3, 2.5 mg/kg bid", "result": "392.17 ± 91.44", "unit": "mm^3"}, {"measurement": "Relative tumor proliferation rate T/C", "setting": "[2]; Day 3, 5 mg/kg bid", "result": 56.84, "unit": "%"}, {"measurement": "Tumor volume", "setting": "[2]; Day 3, 5 mg/kg bid", "result": "343.40 ± 96.52", "unit": "mm^3"}, {"measurement": "Relative tumor proliferation rate T/C", "setting": "[2]; Day 3, 10 mg/kg bid", "result": 35.78, "unit": "%"}, {"measurement": "Tumor volume", "setting": "[2]; Day 3, 10 mg/kg bid", "result": "216.15 ± 52.64", "unit": "mm^3"}, {"measurement": "Relative tumor proliferation rate T/C", "setting": "[2]; Day 3, 20 mg/kg bid", "result": 32.65, "unit": "%"}, {"measurement": "Tumor volume", "setting": "[2]; Day 3, 20 mg/kg bid", "result": "197.28 ± 52.49", "unit": "mm^3"}, {"measurement": "Relative tumor proliferation rate T/C", "setting": "[2]; Day 5, 2.5 mg/kg bid", "result": 42.80, "unit": "%"}, {"measurement": "Tumor volume", "setting": "[2]; Day 5, 2.5 mg/kg bid", "result": "507.81 ± 127.36", "unit": "mm^3"}, {"measurement": "Relative tumor proliferation rate T/C", "setting": "[2]; Day 5, 5 mg/kg bid", "result": 32.50, "unit": "%"}, {"measurement": "Tumor volume", "setting": "[2]; Day 5, 5 mg/kg bid", "result": "385.61 ± 63.66", "unit": "mm^3"}, {"measurement": "Relative tumor proliferation rate T/C", "setting": "[2]; Day 5, 10 mg/kg bid", "result": 19.67, "unit": "%"}, {"measurement": "Tumor volume", "setting": "[2]; Day 5, 10 mg/kg bid", "result": "233.42 ± 49.88", "unit": "mm^3"}, {"measurement": "Relative tumor proliferation rate T/C", "setting": "[2]; Day 5, 20 mg/kg bid", "result": 13.62, "unit": "%"}, {"measurement": "Tumor volume", "setting": "[2]; Day 5, 20 mg/kg bid", "result": "161.67 ± 45.52", "unit": "mm^3"}, {"measurement": "Relative tumor proliferation rate T/C", "setting": "[2]; Day 7, 2.5 mg/kg bid", "result": 36.00, "unit": "%"}, {"measurement": "Tumor volume", "setting": "[2]; Day 7, 2.5 mg/kg bid", "result": "689.34 ± 174.38", "unit": "mm^3"}, {"measurement": "Relative tumor proliferation rate T/C", "setting": "[2]; Day 7, 5 mg/kg bid", "result": 29.86, "unit": "%"}, {"measurement": "Tumor volume", "setting": "[2]; Day 7, 5 mg/kg bid", "result": "571.74 ± 105.62", "unit": "mm^3"}, {"measurement": "Relative tumor proliferation rate T/C", "setting": "[2]; Day 7, 10 mg/kg bid", "result": 15.44, "unit": "%"}, {"measurement": "Tumor volume", "setting": "[2]; Day 7, 10 mg/kg bid", "result": "295.60 ± 218.67", "unit": "mm^3"}, {"measurement": "Relative tumor proliferation rate T/C", "setting": "[2]; Day 7, 20 mg/kg bid", "result": 9.61, "unit": "%"}, {"measurement": "Tumor volume", "setting": "[2]; Day 7, 20 mg/kg bid", "result": "184.02 ± 76.71", "unit": "mm^3"}, {"measurement": "Relative tumor proliferation rate T/C", "setting": "[2]; Day 9, 2.5 mg/kg bid", "result": 34.48, "unit": "%"}, {"measurement": "Tumor volume", "setting": "[2]; Day 9, 2.5 mg/kg bid", "result": "862.41 ± 275.13", "unit": "mm^3"}, {"measurement": "Relative tumor proliferation rate T/C", "setting": "[2]; Day 9, 5 mg/kg bid", "result": 24.33, "unit": "%"}, {"measurement": "Tumor volume", "setting": "[2]; Day 9, 5 mg/kg bid", "result": "608.56 ± 193.58", "unit": "mm^3"}, {"measurement": "Relative tumor proliferation rate T/C", "setting": "[2]; Day 9, 10 mg/kg bid", "result": 11.02, "unit": "%"}, {"measurement": "Tumor volume", "setting": "[2]; Day 9, 10 mg/kg bid", "result": "275.49 ± 176.66", "unit": "mm^3"}, {"measurement": "Relative tumor proliferation rate T/C", "setting": "[2]; Day 9, 20 mg/kg bid", "result": 6.67, "unit": "%"}, {"measurement": "Tumor volume", "setting": "[2]; Day 9, 20 mg/kg bid", "result": "166.80 ± 119.15", "unit": "mm^3"}, {"measurement": "Relative tumor proliferation rate T/C", "setting": "[2]; Day 11, 2.5 mg/kg bid", "result": 31.05, "unit": "%"}, {"measurement": "Tumor volume", "setting": "[2]; Day 11, 2.5 mg/kg bid", "result": "1079.47 ± 236.62", "unit": "mm^3"}, {"measurement": "Relative tumor proliferation rate T/C", "setting": "[2]; Day 11, 5 mg/kg bid", "result": 18.40, "unit": "%"}, {"measurement": "Tumor volume", "setting": "[2]; Day 11, 5 mg/kg bid", "result": "639.67 ± 102.59", "unit": "mm^3"}, {"measurement": "Relative tumor proliferation rate T/C", "setting": "[2]; Day 11, 10 mg/kg bid", "result": 8.91, "unit": "%"}, {"measurement": "Tumor volume", "setting": "[2]; Day 11, 10 mg/kg bid", "result": "309.67 ± 199.23", "unit": "mm^3"}, {"measurement": "Relative tumor proliferation rate T/C", "setting": "[2]; Day 11, 20 mg/kg bid", "result": 4.89, "unit": "%"}, {"measurement": "Tumor volume", "setting": "[2]; Day 11, 20 mg/kg bid", "result": "169.93 ± 190.60", "unit": "mm^3"}, {"measurement": "TGI (tumor growth inhibition rate)", "setting": "[2]; 2.5 mg/kg bid", "result": 68.95, "unit": "%"}, {"measurement": "TGI (tumor growth inhibition rate)", "setting": "[2]; 5 mg/kg bid", "result": 81.60, "unit": "%"}, {"measurement": "TGI (tumor growth inhibition rate)", "setting": "[2]; 10 mg/kg bid", "result": 91.09, "unit": "%"}, {"measurement": "TGI (tumor growth inhibition rate)", "setting": "[2]; 20 mg/kg bid", "result": 95.11, "unit": "%"}, {"measurement": "Tumor inhibition rate (by tumor weight)", "setting": "[2]; 2.5 mg/kg bid", "result": 68.72, "unit": "%"}, {"measurement": "Tumor weight", "setting": "[2]; 2.5 mg/kg bid", "result": "0.54 ± 0.24", "unit": "g"}, {"measurement": "Tumor weight", "setting": "[2]; 5 mg/kg bid", "result": "0.44 ± 0.13", "unit": "g"}, {"measurement": "Tumor inhibition rate (by tumor weight)", "setting": "[2]; 5 mg/kg bid, 5 mg/kg", "result": 74.12, "unit": "%"}, {"measurement": "Tumor inhibition rate (by tumor weight)", "setting": "[2]; 10 mg/kg bid", "result": 92.90, "unit": "%"}, {"measurement": "Tumor weight", "setting": "[2]; 10 mg/kg bid", "result": "0.12 ± 0.11", "unit": "g"}, {"measurement": "Tumor inhibition rate (by tumor weight)", "setting": "[2]; 20 mg/kg bid", "result": 95.75, "unit": "%"}, {"measurement": "Tumor weight", "setting": "[2]; 20 mg/kg bid", "result": "0.07 ± 0.06", "unit": "g"}]}]}
